Experimental findings from US20070225245A1, “Viral vector driven mutant bacterial cytosine deaminase gene and uses thereof” (priority 1998, published 2007) are described below.

The structures appear in SMILES notation.

As a reminder, the IC50 is the concentration needed to halve the response being measured.

Series [1] deals with intracranial D54MG tumors. Put plainly: Intracranial survival study. Format: in vivo, athymic nude mice. The note with it: for median survival time: FIG. 5. The protocol:
D54MG human glioma cells (0.5×10^6 cells/mouse) were injected into the right frontal cortex of athymic nude mice (10 mice/group). Six days after tumor implantation (Day 0), a single dose of saline or 3.2×10^7 TCID50 AdCD-D314A was injected i.t. Mice then received 5 Gy fractions of radiation treatment on Days 1, 3, and 7 and 5-FC (500 mg/kg i.p. twice daily on Days 0-4, and 7-11) or saline and were subsequently monitored for survival.
D54MG human glioma cells (0.5×10^6 cells/mouse) were injected into the right frontal cortex of athymic nude mice (10 mice/group). Five days after tumor implantation, a single dose of PBS or 3.2×10^7 TCID50 AdbCD-D314A was injected i.t. on Day 5 Mice then received radiation treatment on Days 6, 9 and 13 at 2 or 5 Gy and 5-FC (500 mg/kg i.p. q2d×5/week for 3 weeks) and were subsequently monitored for survival.
D54MG tumors were established intracranially in athymic nude mice as described. Briefly, mice were anesthetized by i.p. administration of ketamine (20 mg/ml) and xylazine (0.3 mg/ml) in saline at 0.07 ml/10 g of body weight. A midline scalp incision was made, and a 0.5-mm burr hole was drilled 1.5-2.0 mm to the right of midline and 1 mm anterior to the coronal suture. D54MG cells were injected stereotactically at 0.5×10^6 cells (1×10^8/ml), using a 250 μl Hamilton syringe with a prepared 30 gauge needle mounted in a Stoelting stereotaxic apparatus. A plastic sleeve surrounding the needle allowed reproducible injections of tumor cells, saline or Ad to a depth of 2.5 mm. The needles were left in place for 2 min to minimize reflux of the tumor cells along the needle track. The scalp wounds were closed with Tissu-Mend glue to avoid scatter dose from metallic wound clips during radiation treatment. The mice were placed on a heating pad in sterile microisolator polycarbonate cages and allowed to awaken from anesthesia. Tumors were allowed to grow for 6 days before the start of treatment (Day 0). Animals were randomly divided into groups receiving different treatments: 3.2×10^7 TCID50 AdbCD-D314A in 10 μl saline; AdbCD-D314A in combination with radiation; AdbCD-D314A plus 5-FC; AdbCD-D314A plus 5-FC in combination with radiation, intratumoral saline followed by intraperitoneal 5-FU and intratumoral saline plus 5-FC and radiation. On the day after AdbCD-D314A injection, mice were treated i.p. with either saline or 5-FC twice daily at 500 mg/kg on Days 0 to 4, and 7 to 11 and monitored daily for survival. Radiation therapy consisted of 15 Gy ^60Co delivered in 5 Gy fractions to the whole brain, on Days 1, 3 and 7. Irradiated mice were immobilized in individual Lucite chambers with their heads positioned in an 8×32 cm collimated field. Animals were shielded with 3 cm of lead placed over the chamber, extending from behind the ears to the tail.

A further series relates to MIA PaCa-2 xenografts. Put plainly: Subcutaneous human pancreatic tumor xenograft, tumor growth. Format: in vivo, athymic nude mice. The protocol: Treatment was started at the time of established tumor growth (Day 0 equal to 17 days after tumor cell injection). Animals were injected i.t. with PBS or 5×10^7 TCID50 of AdbCD-D314A on Days 0, 7, and 14, and then irradiated with 2 Gy on Days 1, 8 and 15 using a ^60Co gamma irradiator, and 400 mg/kg of 5-FC was i.p. administered at qd×5/week for 3 weeks starting on Day 1. Data points represent the mean change in tumor surface area relative to Day 0 for each group of animals.
To evaluate in vivo therapeutic efficacy of the combination of AdbCD-D314A/5-FC and radiation treatment, 16×10^6 MIA PaCa-2 tumor cells were resuspended 1:1 (v/v) in Matrigel (Becton Dickinson) and injected s.c. into female athymic nude mice. Treatment was started 17 days post-tumor cell injection at the time of established tumor growth, noted as Day 0. Animals were randomly divided into groups receiving different treatments: 1) AdbCD-D314A plus 5-FC; 2) AdbCD-D314A plus 5-FC in combination with radiation; 3) PBS plus 5-FC in combination with radiation; 4) PBS plus 5-FC. Two groups of mice (# 1 and 2) were injected i.t. with 5×10^7 TCID50 AdbCD-D314A on Days 0, 7, and 14. […] Tumor size was monitored twice a week using digital Vernier calipers. Tumor surface areas were calculated as width×length (mm^2).

The test system of series [2] is human pancreatic cancer cells. The note with it: Uninfected cells; 5-FC at 764 μg/ml.
Procedure: To measure the cytotoxicity of 5-FU and 5-FC, glioma cells or pancreatic cancer cells were plated into 96-well tissue culture plates at 5×10^3 cells/well, and allowed to adhere overnight. Next day, serial dilutions of 5-FU or 5-FC were added directly to cells. Cells were incubated for 5 days, and relative cell density was determined using a crystal violet staining assay. Cell culture medium was removed and surviving cells were then fixed and stained with 2% (w/v) crystal violet (Sigma-Aldrich) in 70% ethanol for 3 h at room temperature. The plates were washed extensively, air-dried and optical density was measured at 570 nm using a V Max plate reader (Molecular Devices Corporation, Sunnyvale Calif.). Fractional cell survival at each drug concentration was calculated as the ratio of absorbance at 570 nm of cells incubated in the presence versus absence of drug, corrected for background absorbance of media alone. Fractional cell survival data were plotted against drug concentration and IC50 values extrapolated by piecewise linear regression as the concentration of drug producing a 50% reduction in corrected absorbance.
A further series concerns BXPC-3. Description: 5-FU cytotoxicity IC50. Format: cell-based. The note with it: Homo sapiens. The protocol:
(§1) A two factor analysis of variance with interaction was used to assess the effects of AdCMVLuc and AdCMVLuc+Fab-FGF2 MOI on RLU for each of the cell types individually. Due to the nonconstant variability, the logarithm of RLU was analyzed. This transformation stabilized the variability and normalized the errors. A three-factor with interaction analysis of variance was used to assess the effects of MOI, virus type and day on the number of cells per well. Due to the nonconstant variability, the logarithm of cells per well was analyzed. This transformation stabilized the variability and normalized the errors. Global comparisons were done at the 5% significance level and all pairwise comparisons were done at the 1% significance level. A nonlinear model was used to calculate the 5-FU IC50 for each cell type individually. The nonlinear model is given by: number of cells=trough+(peak-trough)/(1+dose/IC50). To assess the correlation of the number of cells per well with 5-FU production, a simple linear regression was done modeling the logarithm of cells per well as a function of percent 5-FU production for each cell and virus type combination individually. Kaplan-Meier estimates on the difference in time to tumor size doubling was used to assess the difference in tumor growth in animals treated with AdCMVCD or AdCMVCD+Fab′-FGF2 plus 5-FC and radiation.
(§2) To determine the relative sensitivity of several hepatobiliary cell lines to 5-FU, the concentration of 5-FU which inhibited cellular growth by 50% (IC50) was determined. Characterization of this information is particularly relevant to the CD/5-FC toxin gene prodrug system, as 5-FU is the toxic metabolic product of cytosine deaminase enzymatic conversion of 5-FC.

In the next series the test system is SK-ChA-1. Description: 5-FU cytotoxicity IC50. Format: cell-based. The note with it: Homo sapiens. On the procedure: as §1, §2
The test system of another series is ASPC-1. Put plainly: 5-FU cytotoxicity IC50. Format: cell-based. The note with it: Homo sapiens, ASPC1. The protocol:
as §1, §2

Another series concerns CFPAC-1. Description: 5-FU cytotoxicity IC50. Format: cell-based. The note with it: Homo sapiens. On the procedure:
as §1, §2

`Nc1nc(=O)[nH]cc1F` [5-FC, 5-fluorocytosine]: the median survival time in series [1] (5-FC) is reported as 17 days; in series [1] (5-FC plus radiation), 30 days. In addition, the “survival SF50” value in series [1] (FIG. 19, mock-infected, 5-FC) came out at 23 days. Besides, in series [1] (preliminary study, mock-infected, 5-FC), the survival is given as 13 days. In addition, the entries for the “mean time to tumor doubling” value with MIA PaCa-2 xenografts (PBS plus 5-FC) and in the series on MIA PaCa-2 xenografts (PBS plus 5-FC in combination with radiation) were 14 days and 30 days, respectively. For the same compound, the cytotoxicity entry in series [2] is “no detectable cytotoxicity”.
With `O=c1[nH]cc(F)c(=O)[nH]1` [5-FU, 5-fluorouracil], the IC50 stood at 0.134 µg/mL in the series on BXPC-3, 0.115 µg/mL in the series on SK-ChA-1, 0.635 µg/mL in the series on ASPC-1 and 0.089 µg/mL in the series on CFPAC-1.
